Values after ≈ are worked out from the molar mass of the structure shown. Active and inactive are the calls of the source. The rule behind the calls is not given here.
How the values were obtained:
[1] = AUC (0 to t) in Wistar Han rat at […], po; format: ADME, organism-based; conditions: in vivo
[2] = Tmax in Wistar Han rat assessed as 2,2-difluoroethyl (3S)-3-{[2'-amino-5-fluoro-2-(morpholin-4-yl)-4,5'-bipyrimidin-6-yl]amino}-3-(hydroxymethyl)pyrrolidine-1-carboxylate level at […], po; format: ADME, organism-based; conditions: in vivo
[3] = Volume of distribution at steady state in Wistar Han rat at 2.3 mg/kg, iv; format: ADME, organism-based; conditions: in vivo, read-out: Vdss
[4] = Half life in rat intestinal S9 fraction assessed as 2,2-difluoroethyl (3S)-3-{[2'-amino-5-fluoro-2-(morpholin-4-yl)-4,5'-bipyrimidin-6-yl]amino}-3-(hydroxymethyl)pyrrolidine-1-carboxylate level by enzymatic hydrolysis assay; format: ADME, subcellular, Intestine
[5] = Tmax in Wistar Han rat at […], po; format: ADME, organism-based; conditions: in vivo
[6] = Cmax in Wistar Han rat at […], po; format: ADME, organism-based; conditions: in vivo
[7] = Oral bioavailability in Wistar Han rat at […]; format: ADME, organism-based; conditions: in vivo
[8] = Half life in human intestinal S9 fraction assessed as 2,2-difluoroethyl (3S)-3-{[2'-amino-5-fluoro-2-(morpholin-4-yl)-4,5'-bipyrimidin-6-yl]amino}-3-(hydroxymethyl)pyrrolidine-1-carboxylate level by enzymatic hydrolysis assay; format: ADME, subcellular, Intestine
[9] = Kinetic solubility of compound at pH 7.4 after 24 hrs by LC/MS/MS analysis; format: physicochemical; conditions: buffer, read-out: Kinetic_solubility
[10] = Thermodynamic solubility of compound at pH 7.4; format: physicochemical; conditions: buffer, read-out: Therm_solubility
MCF7 [11] = assay: Antitumor activity against human MCF7 cells xenografted in mouse model assessed as tumor growth regression in presence of palbociclib; format: functional, cell-based
[12] = AUC (0 to t) in Wistar Han rat at 2.3 mg/kg, iv; format: ADME, organism-based; set-up: dose 2.3 mg/kg; conditions: in vivo
[13] = Cmax in Wistar Han rat assessed as 2,2-difluoroethyl (3S)-3-{[2'-amino-5-fluoro-2-(morpholin-4-yl)-4,5'-bipyrimidin-6-yl]amino}-3-(hydroxymethyl)pyrrolidine-1-carboxylate level at […], po; format: ADME, organism-based; conditions: in vivo
[14] = AUC (0 to t) in Wistar Han rat assessed as 2,2-difluoroethyl (3S)-3-{[2'-amino-5-fluoro-2-(morpholin-4-yl)-4,5'-bipyrimidin-6-yl]amino}-3-(hydroxymethyl)pyrrolidine-1-carboxylate level at 2.3 mg/kg, iv; format: ADME, organism-based; set-up: dose 2.3 mg/kg; conditions: in vivo
MCF7 [15] = assay: Antitumor activity against human MCF7 cells xenografted in mouse model assessed as tumor growth regression in presence of fulvestrant and palbociclib; format: functional, cell-based
[16] = Half life in Wistar Han rat at 2.3 mg/kg, iv; format: ADME, organism-based; conditions: in vivo
[17] = Plasma clearance in Wistar Han rat at 2.3 mg/kg, iv; format: ADME, organism-based
MCF7 [18] = assay: Antitumor activity against human MCF7 cells xenografted in mouse model assessed as tumor growth inhibition; format: functional, cell-based
[19] = AUC (0 to t) in Wistar Han rat assessed as 2,2-difluoroethyl (3S)-3-{[2'-amino-5-fluoro-2-(morpholin-4-yl)-4,5'-bipyrimidin-6-yl]amino}-3-(hydroxymethyl)pyrrolidine-1-carboxylate level at […], po; format: ADME, organism-based; conditions: in vivo
MDA-MB-361 = assay: Antitumor activity against human MDA-MB-361 cells xenografted in mouse model assessed as tumor growth inhibition; format: functional, cell-based
MCF7 [20] = assay: Antitumor activity against human MCF7 cells xenografted in mouse model assessed as tumor growth regression in presence of fulvestrant; format: functional, cell-based
Homo sapiens [21] = species: Homo sapiens; assay: Selectivity index, ratio of IC50 for mTOR in human MCF7 cells to Ki for recombinant human full-length PI3K p110alpha/p85alpha; format: cell-based
[22] = target: Phosphatidylinositol 4,5-bisphosphate 3-kinase catalytic subunit beta isoform (Homo sapiens, UniProt P42338); assay: Inhibition of recombinant human N-terminal Myr signal and C-terminal Flag-tagged PI3K p110beta expressed in rat Rat1 cells; format: cell-based
PI3K p110 beta/p85 alpha = PI3K p110 beta/p85 alpha (Homo sapiens, UniProt P42338); assay: Inhibition of recombinant human PI3K p110beta/p85alpha using phosphatidylinositol 4,5-bisphosphate as substrate preincubated for 15 mins followed by addition of ATP and measured after 30 mins by fluorescence polarisation assay; format: protein-complex assay
[23] = target: PI3-kinase p110-delta/p85-alpha (Homo sapiens, UniProt O00329); assay: Inhibition of recombinant human PI3K p110delta/p85alpha using phosphatidylinositol 4,5-bisphosphate as substrate preincubated for 15 mins followed by addition of ATP and measured after 30 mins by fluorescence polarisation assay; format: protein-complex assay
[24] = Apparent intrinsic clearance in human liver microsomes; format: ADME, Microsome; conditions: read-out: CLH(app)
Homo sapiens [25] = species: Homo sapiens; assay: Selectivity index, ratio of IC50 for recombinant human N-terminal Myr signal and C-terminal Flag-tagged PI3K p110beta to Ki for recombinant human full-length PI3K p110alpha/p85alpha
[26] = Plasma clearance in Wistar Han rat at 2 mg/kg, iv; format: ADME, organism-based
[27] = AUC (0 to t) in Wistar Han rat at 10 mg/kg, po; format: ADME, organism-based; set-up: dose 10 mg/kg; conditions: in vivo
[28] = Distribution coefficient, logD of compound at pH 7.4; format: physicochemical; conditions: octanol/water
[29] = Half life in Wistar Han rat at 2 mg/kg, iv; format: ADME, organism-based; conditions: in vivo
Homo sapiens [30] = species: Homo sapiens; assay: Selectivity index, ratio of IC50 for recombinant human N-terminal Myr signal and C-terminal Flag-tagged PI3K p110delta to Ki for recombinant human full-length PI3K p110alpha/p85alpha
MCF7 [31] = assay: Antiproliferation activity against human MCF7 cells assessed as reduction in cell viability incubated for 7 days by Cell-titer Glo reagent based assay; format: functional; conditions: MCF7, 168 h
[32] = Inhibition of PI3K p110alpha […] mutant in human MCF7 cells assessed as reduction in phosphorylation of Akt at T308 residue incubated for 2 hrs by ELISA; format: cell-based; conditions: MCF7, 2 h
[33] = Kinetic solubility of compound; format: physicochemical; conditions: read-out: Kinetic_solubility
[34] = Volume of distribution at steady state in Wistar Han rat at 2 mg/kg, iv; format: ADME, organism-based; conditions: in vivo, read-out: Vdss
[35] = target: PI3-kinase p110-alpha/p85-alpha (Homo sapiens, UniProt P42336); assay: Inhibition of recombinant human full-length PI3K p110alpha/p85alpha (322 to 600) expressed in baculovirus infected Sf21 cells using phosphatidylinositol 4,5-bisphosphate as substrate preincubated for 15 mins followed by addition of ATP and measured after 30 mins by fluorescence polarisation assay
[36] = Cmax in Wistar Han rat at 10 mg/kg, po; format: ADME, organism-based; set-up: route oral, dose 10 mg/kg; conditions: in vivo
[37] = Tmax in Wistar Han rat at 10 mg/kg, po; format: ADME, organism-based; conditions: in vivo
[38] = target: T1, Phosphatidylinositol 4,5-bisphosphate 3-kinase catalytic subunit delta isoform (Homo sapiens, UniProt O00329); assay: Inhibition of recombinant human N-terminal Myr signal and C-terminal Flag-tagged PI3K p110delta expressed in rat Rat1 cells; format: cell-based
T1 sequence (O00329 whole entry): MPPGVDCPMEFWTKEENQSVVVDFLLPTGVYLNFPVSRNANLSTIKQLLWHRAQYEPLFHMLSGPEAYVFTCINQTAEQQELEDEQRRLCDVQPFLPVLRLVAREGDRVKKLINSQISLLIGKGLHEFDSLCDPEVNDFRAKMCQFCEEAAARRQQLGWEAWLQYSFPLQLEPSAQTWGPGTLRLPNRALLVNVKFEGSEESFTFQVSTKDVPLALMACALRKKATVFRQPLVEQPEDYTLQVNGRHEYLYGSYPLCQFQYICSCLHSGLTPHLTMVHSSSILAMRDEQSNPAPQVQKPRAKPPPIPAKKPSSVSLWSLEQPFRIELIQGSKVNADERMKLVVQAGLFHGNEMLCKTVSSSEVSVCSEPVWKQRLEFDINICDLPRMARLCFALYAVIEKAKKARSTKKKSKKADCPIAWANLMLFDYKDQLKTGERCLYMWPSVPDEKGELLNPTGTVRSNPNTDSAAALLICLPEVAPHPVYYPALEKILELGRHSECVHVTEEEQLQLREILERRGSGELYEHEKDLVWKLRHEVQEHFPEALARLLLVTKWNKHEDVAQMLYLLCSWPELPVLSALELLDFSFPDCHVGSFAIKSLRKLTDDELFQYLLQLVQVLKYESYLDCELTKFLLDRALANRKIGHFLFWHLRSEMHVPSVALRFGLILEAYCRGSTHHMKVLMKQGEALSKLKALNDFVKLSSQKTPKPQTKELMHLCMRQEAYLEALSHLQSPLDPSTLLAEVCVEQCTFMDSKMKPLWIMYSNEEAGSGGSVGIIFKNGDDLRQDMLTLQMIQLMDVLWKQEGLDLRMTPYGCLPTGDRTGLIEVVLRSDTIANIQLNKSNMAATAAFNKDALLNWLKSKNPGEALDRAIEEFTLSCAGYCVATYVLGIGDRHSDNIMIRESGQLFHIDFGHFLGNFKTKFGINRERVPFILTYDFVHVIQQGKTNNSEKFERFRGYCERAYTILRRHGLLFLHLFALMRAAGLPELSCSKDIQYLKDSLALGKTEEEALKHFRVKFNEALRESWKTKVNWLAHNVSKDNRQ

[39] = Oral bioavailability in Wistar Han rat at 10 mg/kg; format: ADME, organism-based; conditions: in vivo
[40] = target: Phosphatidylinositol 4,5-bisphosphate 3-kinase catalytic subunit alpha isoform (Homo sapiens, UniProt P42336); assay: Inhibition of recombinant human N-terminal Myr signal and C-terminal Flag-tagged PI3K p110alpha expressed in rat Rat1 cells; format: cell-based
[41] = Inhibition of PI3K p110alpha H1047R mutant in human T47D cells assessed as reduction in phosphorylation of Akt at T308 residue incubated for 2 hrs by ELISA; format: cell-based
[42] = Passive permeability of compound in RRCK cells; format: ADME, cell-based, Canis lupus familiaris, MDCKII-LE; conditions: dog, MDCK; read-out: permeability
Rat1 [43] = assay: Selectivity index, ratio of IC50 for recombinant human N-terminal Myr signal and C-terminal Flag-tagged PI3K p110delta to IC50 for recombinant human N-terminal Myr signal and C-terminal Flag-tagged PI3K p110alpha expressed in rat Rat1 cells; format: cell-based
Rat1 [44] = assay: Selectivity index, ratio of IC50 for recombinant human N-terminal Myr signal and C-terminal Flag-tagged PI3K p110beta to IC50 for recombinant human N-terminal Myr signal and C-terminal Flag-tagged PI3K p110alpha expressed in rat Rat1 cells; format: cell-based
[45] = target: Serine/threonine-protein kinase mTOR (Homo sapiens, UniProt P42345); assay: Inhibition of mTOR in TSC1 null human MCF7 cells assessed as decrease in p70S6K phosphorylation at Thr389 residue incubated for 2 hrs by ELISA; format: cell-based
[46] = AUC (0 to t) in Wistar Han rat at 2 mg/kg, iv; format: ADME, organism-based; set-up: dose 2 mg/kg; conditions: in vivo
T47D = assay: Antiproliferation activity against human T47D cells assessed as reduction in cell viability incubated for 7 days by Cell-titer Glo reagent based assay; format: functional; conditions: 168 h

Sequence of Phosphatidylinositol 4,5-bisphosphate 3-kinase catalytic subunit beta isoform (P42338 whole entry, canonical isoform): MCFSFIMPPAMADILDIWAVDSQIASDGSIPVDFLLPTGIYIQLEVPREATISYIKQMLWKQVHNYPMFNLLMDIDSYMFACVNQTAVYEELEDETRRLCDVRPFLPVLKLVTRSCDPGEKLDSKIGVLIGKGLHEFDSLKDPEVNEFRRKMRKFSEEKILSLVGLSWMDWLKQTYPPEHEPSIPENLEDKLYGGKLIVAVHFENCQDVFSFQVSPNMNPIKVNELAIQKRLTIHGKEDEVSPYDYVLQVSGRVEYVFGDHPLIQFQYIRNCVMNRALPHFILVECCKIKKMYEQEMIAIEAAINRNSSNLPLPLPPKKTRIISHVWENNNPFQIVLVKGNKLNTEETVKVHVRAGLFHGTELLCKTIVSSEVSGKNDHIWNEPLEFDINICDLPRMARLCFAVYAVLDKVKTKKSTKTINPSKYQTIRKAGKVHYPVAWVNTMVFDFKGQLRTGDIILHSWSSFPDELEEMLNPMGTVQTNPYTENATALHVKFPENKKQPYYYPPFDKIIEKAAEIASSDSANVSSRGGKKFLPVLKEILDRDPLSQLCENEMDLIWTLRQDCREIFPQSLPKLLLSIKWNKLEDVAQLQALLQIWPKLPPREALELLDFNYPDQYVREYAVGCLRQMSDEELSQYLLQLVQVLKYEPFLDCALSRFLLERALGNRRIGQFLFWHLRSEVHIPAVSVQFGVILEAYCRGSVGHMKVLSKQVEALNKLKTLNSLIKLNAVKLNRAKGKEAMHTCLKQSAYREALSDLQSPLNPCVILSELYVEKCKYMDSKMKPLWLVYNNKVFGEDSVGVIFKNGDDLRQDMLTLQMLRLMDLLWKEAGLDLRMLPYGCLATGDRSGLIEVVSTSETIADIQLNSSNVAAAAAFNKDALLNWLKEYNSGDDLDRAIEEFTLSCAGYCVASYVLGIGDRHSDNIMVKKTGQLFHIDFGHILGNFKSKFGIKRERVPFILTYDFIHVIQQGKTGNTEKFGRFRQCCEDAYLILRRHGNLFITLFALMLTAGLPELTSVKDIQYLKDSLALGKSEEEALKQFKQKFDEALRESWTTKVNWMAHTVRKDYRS
Sequence of Phosphatidylinositol 4,5-bisphosphate 3-kinase catalytic subunit alpha isoform (P42336 whole entry, canonical isoform): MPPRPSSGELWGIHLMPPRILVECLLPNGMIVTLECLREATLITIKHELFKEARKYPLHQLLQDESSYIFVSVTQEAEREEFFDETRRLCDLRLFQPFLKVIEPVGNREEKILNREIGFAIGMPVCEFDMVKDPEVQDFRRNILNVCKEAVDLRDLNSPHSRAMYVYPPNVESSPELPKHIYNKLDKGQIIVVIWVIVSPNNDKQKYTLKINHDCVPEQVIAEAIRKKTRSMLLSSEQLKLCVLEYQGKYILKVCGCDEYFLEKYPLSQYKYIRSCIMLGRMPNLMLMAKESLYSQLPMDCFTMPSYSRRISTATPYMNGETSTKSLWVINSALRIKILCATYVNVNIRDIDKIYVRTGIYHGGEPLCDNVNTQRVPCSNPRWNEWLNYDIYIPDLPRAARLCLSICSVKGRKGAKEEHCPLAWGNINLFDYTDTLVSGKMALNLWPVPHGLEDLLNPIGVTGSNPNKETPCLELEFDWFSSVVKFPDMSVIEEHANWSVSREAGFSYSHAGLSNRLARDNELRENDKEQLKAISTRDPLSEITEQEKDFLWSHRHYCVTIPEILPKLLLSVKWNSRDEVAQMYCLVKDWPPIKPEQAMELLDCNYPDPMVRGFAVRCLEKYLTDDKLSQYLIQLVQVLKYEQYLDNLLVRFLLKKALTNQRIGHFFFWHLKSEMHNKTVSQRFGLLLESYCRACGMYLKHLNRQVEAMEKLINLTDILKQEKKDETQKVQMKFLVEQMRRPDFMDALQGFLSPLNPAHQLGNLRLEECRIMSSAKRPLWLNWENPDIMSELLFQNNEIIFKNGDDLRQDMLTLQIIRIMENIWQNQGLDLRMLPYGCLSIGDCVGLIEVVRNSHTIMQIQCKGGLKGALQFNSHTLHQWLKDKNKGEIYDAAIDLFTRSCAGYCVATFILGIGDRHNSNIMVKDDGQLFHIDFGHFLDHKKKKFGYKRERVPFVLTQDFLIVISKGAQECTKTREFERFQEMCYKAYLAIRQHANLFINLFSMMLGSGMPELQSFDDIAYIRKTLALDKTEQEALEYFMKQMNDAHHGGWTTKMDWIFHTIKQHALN
Sequence of PI3K p110 beta/p85 alpha (P27986 whole entry): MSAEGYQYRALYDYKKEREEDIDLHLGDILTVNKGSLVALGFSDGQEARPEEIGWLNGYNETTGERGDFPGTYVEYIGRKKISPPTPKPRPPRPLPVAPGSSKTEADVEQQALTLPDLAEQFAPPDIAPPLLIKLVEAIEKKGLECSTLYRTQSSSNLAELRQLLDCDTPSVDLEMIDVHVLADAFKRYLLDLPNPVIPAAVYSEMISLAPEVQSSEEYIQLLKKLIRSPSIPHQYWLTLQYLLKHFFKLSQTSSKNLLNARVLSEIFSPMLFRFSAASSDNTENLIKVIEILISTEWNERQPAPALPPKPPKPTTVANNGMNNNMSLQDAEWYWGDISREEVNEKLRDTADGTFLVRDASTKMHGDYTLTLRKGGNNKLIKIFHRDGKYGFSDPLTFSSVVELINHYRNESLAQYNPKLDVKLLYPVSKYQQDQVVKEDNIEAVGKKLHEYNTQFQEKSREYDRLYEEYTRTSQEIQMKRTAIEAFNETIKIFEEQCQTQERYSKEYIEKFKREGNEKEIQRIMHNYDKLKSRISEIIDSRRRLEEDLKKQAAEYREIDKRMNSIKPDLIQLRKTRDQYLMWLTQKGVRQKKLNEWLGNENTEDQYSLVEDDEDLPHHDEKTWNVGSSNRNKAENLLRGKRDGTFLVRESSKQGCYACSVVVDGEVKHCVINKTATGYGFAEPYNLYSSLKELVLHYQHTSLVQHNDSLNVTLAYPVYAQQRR
Sequence of PI3K p110 beta/p85 alpha (P42338 whole entry): as the sequence (P42338 whole entry, canonical isoform) above
Sequence of PI3-kinase p110-delta/p85-alpha (P27986 whole entry, one chain of several): as the sequence (P27986 whole entry) above
Sequence of PI3-kinase p110-alpha/p85-alpha (P27986 whole entry): as above
Sequence of PI3-kinase p110-alpha/p85-alpha (P42336 whole entry): as the sequence (P42336 whole entry, canonical isoform) above

## Nc1ncc(-c2nc(N3CCOCC3)nc(N[C@@]3(COP(=O)(O)O)CCN(C(=O)OCC(F)F)C3)c2F)cn1
[1]
  AUC(0-t): 2.9 ng·h/mL
[2]
  Tmax: 2 h
[3]
  Vd: 0.34 L/kg
[4]
  t1/2: 1.43 h
[5]
  Tmax: 0.17 h
[6]
  Cmax: 4.3 ng/mL
[7]
  bioavailability: 0.14%
[8]
  t1/2: 0.233 h
[9]
  solubility kinetic at 24 h: 310 µg/mL (≈ 536 µM)
[10]
  solubility thermodynamic: 6200 µg/mL (≈ 10700 µM)
MCF7 [11]
  Activity: Active
[12]
  AUC(0-t): 430 ng·h/mL
[13]
  Cmax: 290 ng/mL
[14]
  AUCt: 900 ng·h/mL
MCF7 [15]
  Activity: Active
[16]
  half-life: 0.28 h
[17]
  clearance: 89 mL/min/kg
MCF7 [18]
  TGI: Active
[19]
  AUCt: 1500 ng·h/mL
MDA-MB-361
  TGI: Active
MCF7 [20]
  Activity: Active

## Nc1ncc(-c2nc(N3CCOCC3)nc(N[C@@]3(CO)CCN(C(=O)OCC(F)F)C3)c2F)cn1
Homo sapiens [21]
  Selectivity Index: 83
[22]
  IC50: 360 nM
PI3K p110 beta/p85 alpha
  Ki: 2 nM
[23]
  Ki: < 0.28 nM
[24]
  microsomal CLint: < 18 µL/min/mg
Homo sapiens [25]
  Selectivity Index: 20
[26]
  clearance: 30 mL/min/kg
[27]
  AUC(0-t): 1400 ng·h/mL
[28]
  logD: 1.9
[29]
  half-life: 3.6 h
Homo sapiens [30]
  Selectivity Index: 9
MCF7 [31]
  IC50: 62 nM
[32]
  IC50: 7.8 nM
[33]
  solubility kinetic: 2.5 µM (≈ 1.25 µg/mL)
[34]
  Vd: 3 L/kg
[35]
  Ki: < 0.018 nM
[36]
  Cmax: 330 ng/mL
[9]
  solubility kinetic at 24 h: 1.3 µg/mL (≈ 2.61 µM)
[10]
  solubility thermodynamic: 6.2 µg/mL (≈ 12.4 µM)
[37]
  Tmax: 1 h
[38]
  IC50: 160 nM
[39]
  bioavailability: 25%
[40]
  IC50: 18 nM
[41]
  IC50: 8.7 nM
[42]
  Papp: 13 ×10⁻⁶ cm/s
Rat1 [43]
  Ratio IC50: 9
Rat1 [44]
  Ratio IC50: 20
[45]
  IC50: 1500 nM
[46]
  AUC(0-t): 1100 ng·h/mL
T47D
  IC50: 32 nM

— ChEMBL document CHEMBL4706640, “Structure-Based Drug Design and Synthesis of PI3Kα-Selective Inhibitor (PF-06843195)” (J Med Chem, 2021)
